Reference: ChEMBL document CHEMBL1150039, “Dual inhibition of neutral endopeptidase and angiotensin-converting enzyme by N-phosphonomethyl and N-carboxyalkyl dipeptides” (Bioorg Med Chem Lett, 1994)

Assays:
[1] = target: Angiotensin-converting enzyme (Homo sapiens, UniProt P12821); test: In vitro inhibitory concentration against angiotensin-converting enzyme; format: protein assay
Neprilysin = Neprilysin (Homo sapiens, UniProt P08473); test: In vitro inhibitory concentration against neutral endopeptidase
Neprilysin, sequence (P08473 whole entry): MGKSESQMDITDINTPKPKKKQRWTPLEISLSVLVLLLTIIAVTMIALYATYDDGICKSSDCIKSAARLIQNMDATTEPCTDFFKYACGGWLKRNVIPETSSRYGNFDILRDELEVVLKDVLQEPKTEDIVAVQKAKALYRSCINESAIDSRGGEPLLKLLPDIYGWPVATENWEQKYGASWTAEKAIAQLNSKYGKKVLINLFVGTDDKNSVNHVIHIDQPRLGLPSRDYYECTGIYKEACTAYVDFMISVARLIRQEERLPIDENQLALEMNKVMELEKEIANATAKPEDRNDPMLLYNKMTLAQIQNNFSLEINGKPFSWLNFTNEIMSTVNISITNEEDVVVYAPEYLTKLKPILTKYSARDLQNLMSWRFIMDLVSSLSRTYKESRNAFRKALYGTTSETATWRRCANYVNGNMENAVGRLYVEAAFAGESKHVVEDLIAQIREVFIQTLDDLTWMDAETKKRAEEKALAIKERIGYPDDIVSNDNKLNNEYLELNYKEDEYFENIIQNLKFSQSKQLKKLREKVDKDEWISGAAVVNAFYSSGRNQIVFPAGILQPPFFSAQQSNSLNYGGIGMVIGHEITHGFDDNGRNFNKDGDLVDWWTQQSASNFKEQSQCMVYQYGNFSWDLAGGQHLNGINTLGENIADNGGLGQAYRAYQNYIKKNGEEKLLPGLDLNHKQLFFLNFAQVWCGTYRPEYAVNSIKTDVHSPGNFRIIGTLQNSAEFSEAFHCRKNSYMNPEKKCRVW

Angiotensin-converting enzyme, sequence (P12821 whole entry): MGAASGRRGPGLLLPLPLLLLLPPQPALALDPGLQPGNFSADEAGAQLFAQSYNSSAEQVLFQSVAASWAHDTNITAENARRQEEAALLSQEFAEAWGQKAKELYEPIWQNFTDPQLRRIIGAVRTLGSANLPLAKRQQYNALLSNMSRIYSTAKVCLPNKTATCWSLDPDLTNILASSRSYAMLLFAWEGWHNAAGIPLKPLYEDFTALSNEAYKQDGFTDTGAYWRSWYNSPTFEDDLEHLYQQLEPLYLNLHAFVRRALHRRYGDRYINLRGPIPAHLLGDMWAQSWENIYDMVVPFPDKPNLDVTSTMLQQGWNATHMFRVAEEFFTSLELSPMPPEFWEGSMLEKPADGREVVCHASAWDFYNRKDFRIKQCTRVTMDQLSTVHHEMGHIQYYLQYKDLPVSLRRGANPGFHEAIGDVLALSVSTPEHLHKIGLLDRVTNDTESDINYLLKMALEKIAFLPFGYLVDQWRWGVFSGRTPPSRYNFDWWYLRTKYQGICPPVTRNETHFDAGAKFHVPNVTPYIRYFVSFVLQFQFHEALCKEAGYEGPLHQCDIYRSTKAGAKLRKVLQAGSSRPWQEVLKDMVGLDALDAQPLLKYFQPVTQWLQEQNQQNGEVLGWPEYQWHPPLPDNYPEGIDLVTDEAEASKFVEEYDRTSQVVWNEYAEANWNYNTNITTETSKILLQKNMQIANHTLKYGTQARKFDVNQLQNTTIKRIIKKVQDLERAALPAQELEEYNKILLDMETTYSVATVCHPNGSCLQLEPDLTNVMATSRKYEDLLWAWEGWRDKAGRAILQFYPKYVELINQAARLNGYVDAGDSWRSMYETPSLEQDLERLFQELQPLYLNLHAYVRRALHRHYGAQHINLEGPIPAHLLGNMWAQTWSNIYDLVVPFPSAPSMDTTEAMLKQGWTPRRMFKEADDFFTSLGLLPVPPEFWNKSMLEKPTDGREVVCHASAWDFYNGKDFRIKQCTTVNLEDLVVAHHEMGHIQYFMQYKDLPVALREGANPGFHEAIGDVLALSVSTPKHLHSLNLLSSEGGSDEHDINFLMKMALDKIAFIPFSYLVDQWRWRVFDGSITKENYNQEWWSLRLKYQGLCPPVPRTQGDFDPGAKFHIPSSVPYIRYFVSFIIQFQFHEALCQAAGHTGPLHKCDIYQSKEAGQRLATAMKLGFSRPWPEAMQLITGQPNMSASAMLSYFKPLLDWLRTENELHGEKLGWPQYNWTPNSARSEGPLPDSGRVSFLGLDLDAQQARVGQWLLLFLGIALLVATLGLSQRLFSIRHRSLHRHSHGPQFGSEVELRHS

`C[C@H](O)[C@H](NCP(=O)(O)O)C(=O)N[C@@H](Cc1ccc(-c2ccccc2)cc1)C(=O)O` was tested, and the IC50 [1] was 665 nM and the IC50 (Neprilysin) was > 1000 nM.

For `C[C@H](NCP(=O)(O)O)C(=O)N[C@@H](Cc1ccc(-c2ccccc2)cc1)C(=O)O`, the IC50 [1] was 660 nM and the IC50 (Neprilysin) was 1000 nM.

`O=C(O)[C@H](Cc1ccc(-c2ccccc2)cc1)NC(=O)[C@H](Cc1ccc2c(c1)OCO2)NCP(=O)(O)O` was tested, and the IC50 [1] was 147 nM and the IC50 (Neprilysin) was 48 nM.

For `O=C(O)[C@H](Cc1ccc(-c2ccccc2)cc1)NC(=O)[C@H](Cc1cnc[nH]1)NCP(=O)(O)O`, the IC50 [1] was > 1000 nM and the IC50 (Neprilysin) was > 1000 nM.

`CC[C@@H](C)[C@H](NCP(=O)(O)O)C(=O)N[C@@H](Cc1ccc(-c2ccccc2)cc1)C(=O)O` gave an IC50 [1] of 50 nM and an IC50 (Neprilysin) of 2 nM.

In the case of `CC(C)[C@H](NCP(=O)(O)O)C(=O)N[C@@H](Cc1ccc(-c2ccccc2)cc1)C(=O)N[C@@H](Cc1ccc(O)cc1)C(=O)O`, the IC50 [1] is reported as > 1000 nM and the IC50 (Neprilysin) is reported as 4 nM.

For `CC(C)C[C@H](NCP(=O)(O)O)C(=O)N[C@@H](Cc1ccc(-c2ccccc2)cc1)C(=O)O`, the IC50 [1] was > 1000 nM and the IC50 (Neprilysin) was 356 nM.

`CC(C)[C@H](NCP(=O)(O)O)C(=O)N[C@@H](Cc1c[nH]c2ccccc12)C(=O)O` gave an IC50 [1] of 240 nM and an IC50 (Neprilysin) of 9 nM.

For `CC(C)(C)[C@H](NCP(=O)(O)O)C(=O)N[C@@H](Cc1ccc(-c2ccccc2)cc1)C(=O)O`, the IC50 [1] was > 1000 nM and the IC50 (Neprilysin) was > 1000 nM.

`C[C@H](OCc1ccccc1)[C@H](NCP(=O)(O)O)C(=O)N[C@@H](Cc1ccc(-c2ccccc2)cc1)C(=O)O` was tested, and the IC50 [1] was 656 nM and the IC50 (Neprilysin) was > 1000 nM.

In the case of `O=C(O)[C@H](Cc1ccc(-c2ccccc2)cc1)NC(=O)[C@H](Cc1ccccc1O)NCP(=O)(O)O`, the IC50 [1] is reported as > 1000 nM and the IC50 (Neprilysin) is reported as > 1000 nM.

`CC(C)[C@H](NCP(=O)(O)O)C(=O)N[C@@H](Cc1ccc(-c2ccccc2)cc1)C(=O)O` was tested, and the IC50 [1] was 25 nM and the IC50 (Neprilysin) was 3 nM.

For `O=C(O)[C@H](Cc1ccc(-c2ccccc2)cc1)NC(=O)[C@H](Cc1ccc(O)cc1)NCP(=O)(O)O`, the IC50 [1] was > 1000 nM and the IC50 (Neprilysin) was 226 nM.

`COc1ccccc1C[C@H](NCP(=O)(O)O)C(=O)N[C@@H](Cc1ccc(-c2ccccc2)cc1)C(=O)O` was tested, and the IC50 [1] was 160 nM and the IC50 (Neprilysin) was > 1000 nM.

With `C[C@H](N[C@@H](Cc1ccccc1)C(=O)N[C@@H](Cc1ccc(-c2ccccc2)cc1)C(=O)O)P(=O)(O)O` the IC50 [1] was 44 nM and the IC50 (Neprilysin) was 171 nM.

For `O=C(O)[C@H](Cc1ccc(-c2ccccc2)cc1)NC(=O)[C@@H](NCP(=O)(O)O)C1CCCCC1`, the IC50 [1] was > 1000 nM and the IC50 (Neprilysin) was 34 nM.

In the case of `O=C(O)[C@H](Cc1ccc(-c2ccccc2)cc1)NC(=O)[C@H](Cc1ccccc1)NCP(=O)(O)O`, the IC50 [1] is reported as 117 nM and the IC50 (Neprilysin) is reported as 35 nM.

Work on `O=C(O)[C@H](Cc1ccc(-c2ccccc2)cc1)NC(=O)[C@H](Cc1cccs1)NCP(=O)(O)O` yielded an IC50 [1] of 385 nM and an IC50 (Neprilysin) of 73 nM.

For `CC(C)Oc1ccc(C[C@H](NC(=O)[C@@H](NCP(=O)(O)O)C(C)C)C(=O)O)cc1`, the IC50 [1] was 92 nM and the IC50 (Neprilysin) was 9 nM.

`Cc1ccccc1C[C@H](NCP(=O)(O)O)C(=O)N[C@@H](Cc1ccc(-c2ccccc2)cc1)C(=O)O` was tested, and the IC50 [1] was 498 nM and the IC50 (Neprilysin) was 96 nM.

Compound `CC[C@H](C)C(N[C@@H](C)C(=O)O)C(=O)N[C@@H](Cc1ccc(-c2ccccc2)cc1)C(=O)O` (some centres undefined) has an IC50 [1] of 22 nM and an IC50 (Neprilysin) of 165 nM.

Compound `CCCC[C@H](NCP(=O)(O)O)C(=O)N[C@@H](Cc1ccc(-c2ccccc2)cc1)C(=O)O` has an IC50 [1] of 731 nM and an IC50 (Neprilysin) of 37 nM.

`CC[C@H](C)C(NCC(=O)O)C(=O)N[C@@H](Cc1ccc(-c2ccccc2)cc1)C(=O)O` (some centres undefined) was tested, and the IC50 [1] was 65 nM and the IC50 (Neprilysin) was 200 nM.

`O=C(O)[C@H](Cc1ccc(-c2ccccc2)cc1)NC(=O)[C@H](Cc1ccc(Cl)cc1)NCP(=O)(O)O` was tested, and the IC50 [1] was 473 nM and the IC50 (Neprilysin) was 338 nM.

In the case of `CC(C)[C@H](N[C@@H](C)C(=O)O)C(=O)N[C@@H](Cc1ccc(-c2ccccc2)cc1)C(=O)O`, the IC50 [1] is reported as 23 nM and the IC50 (Neprilysin) is reported as 735 nM.

Work on `O=C(O)[C@H](Cc1ccc(-c2ccccc2)cc1)NC(=O)[C@H](Cc1ccc2ccccc2c1)NCP(=O)(O)O` yielded an IC50 [1] of 53 nM and an IC50 (Neprilysin) of 282 nM.

`C[C@H](c1ccccc1)[C@H](NCP(=O)(O)O)C(=O)N[C@@H](Cc1ccc(-c2ccccc2)cc1)C(=O)O` gave an IC50 [1] of 138 nM and an IC50 (Neprilysin) of 47 nM.

Work on `CC(C)[C@H](NCP(=O)(O)O)C(=O)N[C@@H](CCc1ccccc1)C(=O)O` yielded an IC50 [1] of 100 nM and an IC50 (Neprilysin) of 26 nM.

`CC(C)[C@H](NCP(=O)(O)O)C(=O)N[C@@H](Cc1ccc(C2CCCCC2)cc1)C(=O)O` showed an IC50 [1] of 122 nM and an IC50 (Neprilysin) of 35 nM.

In the case of `CC(C)[C@H](NCP(=O)(O)O)C(=O)N[C@@H](Cc1ccc(-c2ccccc2)cc1)C(=O)N1C[C@H](O)C[C@H]1C(=O)O`, the IC50 [1] is reported as > 1000 nM and the IC50 (Neprilysin) is reported as 12 nM.

In the case of `O=C(O)[C@H](Cc1ccc(-c2ccccc2)cc1)NC(=O)C1(NCP(=O)(O)O)CCCC1`, the IC50 [1] is reported as > 1000 nM and the IC50 (Neprilysin) is reported as > 1000 nM.

Compound `O=C(O)[C@H](Cc1ccc(-c2ccccc2)cc1)NC(=O)[C@H](Cc1ccc(-c2ccccc2)cc1)NCP(=O)(O)O` has an IC50 [1] of 414 nM and an IC50 (Neprilysin) of 20 nM.
